Test system: 192522-019-R-J2-PDC complex tumor spheroid viability
Experiment: Anticancer human tumor 192522-019-R-J2-PDC patient-derived colon adenocarcinoma cell line growth inhibition [POLQ]
Conditions: for IC50: curve of first compound; for viability, T/C: stronger effect = lower value
Method in brief: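 Patient-derived tumour cells were co-cultured with HUVEC and mesenchymal stem cells as multicellular spheroids at 37 °C. They were treated with POLQ inhibitors (novobiocin, ART-558, RP6685) alone or combined with other agents. Top concentrations were at or near clinical Cmax (otherwise 10 microM; SN-38 at 1 microM), decreasing in half-log steps.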

[1] = second compound 0.0316 µM, first compound 0.0316 µM
[2] = second compound 0.0316 µM, first compound 0.1 µM
[3] = second compound 0.0316 µM, first compound 0.316 µM
[4] = second compound 0.0316 µM, first compound 1 µM
[5] = second compound 0.0316 µM, first compound 3.16 µM
[6] = second compound 0.0316 µM, first compound 10 µM
[7] = second compound 0.1 µM, first compound 0.0316 µM
[8] = second compound 0.1 µM, first compound 0.1 µM
[9] = second compound 0.1 µM, first compound 0.316 µM
[10] = second compound 0.1 µM, first compound 1 µM
[11] = second compound 0.1 µM, first compound 3.16 µM
[12] = second compound 0.1 µM, first compound 10 µM
[13] = second compound 0.316 µM, first compound 0.0316 µM
[14] = second compound 0.316 µM, first compound 0.1 µM
[15] = second compound 0.316 µM, first compound 0.316 µM
[16] = second compound 0.316 µM, first compound 1 µM
[17] = second compound 0.316 µM, first compound 3.16 µM
[18] = second compound 0.316 µM, first compound 10 µM
[19] = second compound 1 µM, first compound 0.0316 µM
[20] = second compound 1 µM, first compound 0.1 µM
[21] = second compound 1 µM, first compound 0.316 µM
[22] = second compound 1 µM, first compound 1 µM
[23] = second compound 1 µM, first compound 3.16 µM
[24] = second compound 1 µM, first compound 10 µM
[25] = second compound 3.16 µM, first compound 0.0316 µM
[26] = second compound 3.16 µM, first compound 0.1 µM
[27] = second compound 3.16 µM, first compound 0.316 µM
[28] = second compound 3.16 µM, first compound 1 µM
[29] = second compound 3.16 µM, first compound 3.16 µM
[30] = second compound 3.16 µM, first compound 10 µM
[31] = second compound 10 µM, first compound 0.0316 µM
[32] = second compound 10 µM, first compound 0.1 µM
[33] = second compound 10 µM, first compound 0.316 µM
[34] = second compound 10 µM, first compound 1 µM
[35] = second compound 10 µM, first compound 3.16 µM
[36] = second compound 10 µM, first compound 10 µM
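Note: spheroids exposed to drugs for seven days before reading.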
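Throughout, for viability, T/C: 100% = DMSO vehicle control viability in luminescence.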

Compound CC1COCCN1c1cc(-c2ccnn2C)c2ccnc(-c3ccn[nH]3)c2n1 (stereo unspecified) + Cc1cccc(N(C)C(=O)C2C(O)CCN2c2nc(C)cc(C(F)(F)F)c2C#N)c1 has an IC50 (second compound 0.0316 µM) of 0.359 µM, an IC50 (second compound 0.1 µM) of 0.287 µM and an IC50 (second compound 0.316 µM) of 0.397 µM. It also gave an IC50 (second compound 1 µM) of 0.428 µM, an IC50 (second compound 3.16 µM) of 0.402 µM and an IC50 (second compound 10 µM) of 0.373 µM. It also gave a viability, T/C [1] of 101%, a viability, T/C [2] of 73% and a viability, T/C [3] of 55.6%. It also gave a viability, T/C [4] of 32.6%, a viability, T/C [5] of 43.4% and a viability, T/C [6] of 47.4%. For the same compound, the viability, T/C [7] was 108%, the viability, T/C [8] was 76.8% and the viability, T/C [9] was 49.4%. It also gave a viability, T/C [10] of 32.8%, a viability, T/C [11] of 42.1% and a viability, T/C [12] of 52.4%. The viability, T/C [13] was 100%, the viability, T/C [14] was 77.2% and the viability, T/C [15] was 56.5%. It also gave a viability, T/C [16] of 32.5%, a viability, T/C [17] of 37.9% and a viability, T/C [18] of 48.8%. For the same compound, the viability, T/C [19] was 91.4%, the viability, T/C [20] was 89.2% and the viability, T/C [21] was 53.1%. It also gave a viability, T/C [22] of 33%, a viability, T/C [23] of 37.7% and a viability, T/C [24] of 54.1%. The viability, T/C [25] was 95%, the viability, T/C [26] was 84% and the viability, T/C [27] was 51.7%. For the same compound, the viability, T/C [28] was 36.3%, the viability, T/C [29] was 44% and the viability, T/C [30] was 57.9%. The viability, T/C [31] was 94.9%, the viability, T/C [32] was 83.1% and the viability, T/C [33] was 51.9%. For the same compound, the viability, T/C [34] was 33.8%, the viability, T/C [35] was 44.2% and the viability, T/C [36] was 56.8%.

CCc1cc2c(N3CCc4c(cc(Cn5ccnc5)cc4-c4cn(C)nc4C(F)(F)F)C3=O)ccnc2c(OC)n1 + Cc1cccc(N(C)C(=O)C2C(O)CCN2c2nc(C)cc(C(F)(F)F)c2C#N)c1 showed an IC50 (second compound 0.0316 µM) greater than 10 µM, an IC50 (second compound 0.1 µM) greater than 10 µM and an IC50 (second compound 0.316 µM) greater than 10 µM. For the same compound, the IC50 (second compound 1 µM) was greater than 10 µM, the IC50 (second compound 3.16 µM) was greater than 10 µM and the IC50 (second compound 10 µM) was greater than 10 µM. For the same compound, the viability, T/C [1] was 107%, the viability, T/C [2] was 93.3% and the viability, T/C [3] was 93.9%. It also gave a viability, T/C [4] of 78.7%, a viability, T/C [5] of 82.3% and a viability, T/C [6] of 72.7%. For the same compound, the viability, T/C [7] was 99.6%, the viability, T/C [8] was 90.7% and the viability, T/C [9] was 85.4%. It also gave a viability, T/C [10] of 93%, a viability, T/C [11] of 70.7% and a viability, T/C [12] of 63.7%. It also gave a viability, T/C [13] of 108%, a viability, T/C [14] of 92.8% and a viability, T/C [15] of 89.1%. It also gave a viability, T/C [16] of 88.5%, a viability, T/C [17] of 85.2% and a viability, T/C [18] of 72.9%. For the same compound, the viability, T/C [19] was 108%, the viability, T/C [20] was 95.9% and the viability, T/C [21] was 94.6%. The viability, T/C [22] was 90.1%, the viability, T/C [23] was 90.2% and the viability, T/C [24] was 85.3%. The viability, T/C [25] was 105%, the viability, T/C [26] was 98% and the viability, T/C [27] was 96.8%. It also gave a viability, T/C [28] of 91.2%, a viability, T/C [29] of 91.3% and a viability, T/C [30] of 82.3%. It also gave a viability, T/C [31] of 104%, a viability, T/C [32] of 98.9% and a viability, T/C [33] of 99.2%. It also gave a viability, T/C [34] of 92.4%, a viability, T/C [35] of 88% and a viability, T/C [36] of 88.7%.

Compound COc1ccc([C@@H](O)c2cc(-c3ncnc4cc(N5CCOCC5)ccc34)c(F)cc2Cl)nn1 + Cc1cccc(N(C)C(=O)C2C(O)CCN2c2nc(C)cc(C(F)(F)F)c2C#N)c1 has an IC50 (second compound 0.0316 µM) greater than 10 µM, an IC50 (second compound 0.1 µM) greater than 10 µM and an IC50 (second compound 0.316 µM) greater than 10 µM. For the same compound, the IC50 (second compound 1 µM) was greater than 10 µM, the IC50 (second compound 3.16 µM) was greater than 10 µM and the IC50 (second compound 10 µM) was greater than 10 µM. The viability, T/C [1] was 102%, the viability, T/C [2] was 86% and the viability, T/C [3] was 103%. It also gave a viability, T/C [4] of 83.1%, a viability, T/C [5] of 85.9% and a viability, T/C [6] of 51.8%. For the same compound, the viability, T/C [7] was 100%, the viability, T/C [8] was 87.5% and the viability, T/C [9] was 90.1%. It also gave a viability, T/C [10] of 90.8%, a viability, T/C [11] of 78.9% and a viability, T/C [12] of 61.8%. It also gave a viability, T/C [13] of 104%, a viability, T/C [14] of 95.7% and a viability, T/C [15] of 102%. It also gave a viability, T/C [16] of 91.3%, a viability, T/C [17] of 84.9% and a viability, T/C [18] of 65%. For the same compound, the viability, T/C [19] was 98.9%, the viability, T/C [20] was 94.7% and the viability, T/C [21] was 93.7%. For the same compound, the viability, T/C [22] was 97.4%, the viability, T/C [23] was 89.9% and the viability, T/C [24] was 62.4%. It also gave a viability, T/C [25] of 101%, a viability, T/C [26] of 100% and a viability, T/C [27] of 105%. It also gave a viability, T/C [28] of 94.8%, a viability, T/C [29] of 95.1% and a viability, T/C [30] of 64.6%. It also gave a viability, T/C [31] of 106%, a viability, T/C [32] of 96.1% and a viability, T/C [33] of 104%. For the same compound, the viability, T/C [34] was 99.6%, the viability, T/C [35] was 89% and the viability, T/C [36] was 52.6%.

Reference: PubChem BioAssay AID1963850 (Molecular Pharmacology Branch, DTP, NCI, 2024)
